ChEMBL document CHEMBL4819104, “Discovery of 2-amino-3-amido-5-aryl-pyridines as highly potent, orally bioavailable, and efficacious PERK kinase inhibitors” (Bioorg Med Chem Lett, 2021)
pIC50: −log10 of the molar value.

Columns and labels:
[1] = biological target: Epithelial discoidin domain-containing receptor 1 (Homo sapiens) (UniProt Q08345); experiment: Inhibition of wild-type human partial length DDR1 (R565 to V876 residues) expressed in bacterial expression system assessed as residual activity at 10 uM by Kinomescan method relative to control
[2] = biological target: Angiopoietin-1 receptor (Homo sapiens) (UniProt Q02763); experiment: Inhibition of wild-type human partial length TIE2 (N804 to T1112 residues) expressed in bacterial expression system assessed as residual activity at 10 uM by Kinomescan method relative to control
[3] = biological target: T1, Eukaryotic translation initiation factor 2-alpha kinase 3 (Homo sapiens, UniProt Q9NZJ5); experiment: Inhibition of human His-tagged PERK expressed in Escherichia coli assessed as eIF2alpha phosphorylation by TR-FRET assay
T1 sequence (Q9NZJ5 whole entry): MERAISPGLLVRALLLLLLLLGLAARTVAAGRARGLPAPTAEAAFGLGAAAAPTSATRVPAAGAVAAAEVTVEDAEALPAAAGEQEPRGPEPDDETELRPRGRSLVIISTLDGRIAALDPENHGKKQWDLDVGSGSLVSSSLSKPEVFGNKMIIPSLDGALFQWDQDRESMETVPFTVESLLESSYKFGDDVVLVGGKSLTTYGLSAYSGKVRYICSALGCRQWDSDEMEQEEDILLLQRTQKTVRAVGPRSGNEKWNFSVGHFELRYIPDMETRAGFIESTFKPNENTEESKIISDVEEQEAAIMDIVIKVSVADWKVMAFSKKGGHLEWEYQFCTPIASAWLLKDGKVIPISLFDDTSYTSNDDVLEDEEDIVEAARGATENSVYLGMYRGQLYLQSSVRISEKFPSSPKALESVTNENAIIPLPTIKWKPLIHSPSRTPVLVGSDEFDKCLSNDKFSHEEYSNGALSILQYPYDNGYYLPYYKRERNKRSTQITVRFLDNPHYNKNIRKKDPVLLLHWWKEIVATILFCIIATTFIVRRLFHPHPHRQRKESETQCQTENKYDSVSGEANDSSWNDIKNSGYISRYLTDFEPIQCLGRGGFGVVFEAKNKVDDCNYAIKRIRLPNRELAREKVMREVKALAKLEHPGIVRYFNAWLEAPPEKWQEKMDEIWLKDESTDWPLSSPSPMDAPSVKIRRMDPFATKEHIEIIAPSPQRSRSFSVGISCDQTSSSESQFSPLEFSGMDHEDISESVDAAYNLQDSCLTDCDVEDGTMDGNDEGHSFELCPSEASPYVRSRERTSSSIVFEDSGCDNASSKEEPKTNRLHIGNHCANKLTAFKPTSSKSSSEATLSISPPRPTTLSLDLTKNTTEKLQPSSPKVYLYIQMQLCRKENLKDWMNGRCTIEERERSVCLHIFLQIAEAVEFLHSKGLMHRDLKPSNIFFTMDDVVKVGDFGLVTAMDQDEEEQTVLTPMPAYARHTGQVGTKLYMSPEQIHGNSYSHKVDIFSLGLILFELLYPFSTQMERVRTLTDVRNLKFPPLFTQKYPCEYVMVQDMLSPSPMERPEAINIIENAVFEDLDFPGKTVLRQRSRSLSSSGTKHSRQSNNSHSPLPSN

[4] = biological target: Aurora kinase B (Homo sapiens) (UniProt Q96GD4); experiment: Inhibition of wild-type human partial length AURKB (D25 to A303 residues) expressed in mammalian expression system assessed as residual activity at 10 uM by Kinomescan method relative to control
Aurora kinase B (Homo sapiens), sequence (Q96GD4 whole entry, the tested form may be a part): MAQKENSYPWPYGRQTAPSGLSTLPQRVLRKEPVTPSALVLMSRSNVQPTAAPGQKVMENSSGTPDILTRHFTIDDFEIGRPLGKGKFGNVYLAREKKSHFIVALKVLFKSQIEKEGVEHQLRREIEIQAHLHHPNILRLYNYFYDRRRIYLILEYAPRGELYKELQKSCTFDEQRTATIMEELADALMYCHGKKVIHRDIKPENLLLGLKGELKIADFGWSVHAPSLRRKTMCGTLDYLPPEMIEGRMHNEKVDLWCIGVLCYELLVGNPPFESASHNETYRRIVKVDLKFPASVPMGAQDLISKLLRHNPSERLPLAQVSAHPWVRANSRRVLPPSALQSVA

Angiopoietin-1 receptor (Homo sapiens), sequence (Q02763 whole entry, the tested form may be a part): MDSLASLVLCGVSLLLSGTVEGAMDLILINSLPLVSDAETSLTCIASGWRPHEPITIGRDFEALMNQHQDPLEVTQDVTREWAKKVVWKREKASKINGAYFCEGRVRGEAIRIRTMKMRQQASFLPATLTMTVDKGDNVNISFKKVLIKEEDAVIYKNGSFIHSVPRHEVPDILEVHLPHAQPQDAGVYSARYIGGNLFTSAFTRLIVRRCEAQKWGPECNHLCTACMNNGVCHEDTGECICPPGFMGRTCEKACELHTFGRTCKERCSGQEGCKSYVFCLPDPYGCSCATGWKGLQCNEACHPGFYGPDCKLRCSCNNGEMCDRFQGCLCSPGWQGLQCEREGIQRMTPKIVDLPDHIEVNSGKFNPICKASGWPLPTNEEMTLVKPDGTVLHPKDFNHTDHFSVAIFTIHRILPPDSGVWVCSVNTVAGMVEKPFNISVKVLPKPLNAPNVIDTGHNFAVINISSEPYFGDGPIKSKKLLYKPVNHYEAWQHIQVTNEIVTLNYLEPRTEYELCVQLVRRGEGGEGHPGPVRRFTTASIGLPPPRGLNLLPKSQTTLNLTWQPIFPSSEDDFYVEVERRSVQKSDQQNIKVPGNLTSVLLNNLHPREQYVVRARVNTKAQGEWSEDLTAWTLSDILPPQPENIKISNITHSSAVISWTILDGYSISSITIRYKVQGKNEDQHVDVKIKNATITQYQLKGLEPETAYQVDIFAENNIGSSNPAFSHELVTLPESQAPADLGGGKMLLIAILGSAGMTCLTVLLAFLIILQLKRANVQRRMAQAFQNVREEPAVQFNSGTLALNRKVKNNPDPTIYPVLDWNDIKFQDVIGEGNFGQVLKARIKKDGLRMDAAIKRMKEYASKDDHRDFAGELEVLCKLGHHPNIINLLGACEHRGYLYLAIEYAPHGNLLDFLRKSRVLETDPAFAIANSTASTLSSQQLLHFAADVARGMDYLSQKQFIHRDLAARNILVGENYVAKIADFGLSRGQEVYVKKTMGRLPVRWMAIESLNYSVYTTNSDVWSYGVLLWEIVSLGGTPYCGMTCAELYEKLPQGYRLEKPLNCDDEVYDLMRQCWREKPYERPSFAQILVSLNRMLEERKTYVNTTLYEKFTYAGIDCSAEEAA
Epithelial discoidin domain-containing receptor 1 (Homo sapiens), sequence (Q08345 whole entry, the tested form may be a part): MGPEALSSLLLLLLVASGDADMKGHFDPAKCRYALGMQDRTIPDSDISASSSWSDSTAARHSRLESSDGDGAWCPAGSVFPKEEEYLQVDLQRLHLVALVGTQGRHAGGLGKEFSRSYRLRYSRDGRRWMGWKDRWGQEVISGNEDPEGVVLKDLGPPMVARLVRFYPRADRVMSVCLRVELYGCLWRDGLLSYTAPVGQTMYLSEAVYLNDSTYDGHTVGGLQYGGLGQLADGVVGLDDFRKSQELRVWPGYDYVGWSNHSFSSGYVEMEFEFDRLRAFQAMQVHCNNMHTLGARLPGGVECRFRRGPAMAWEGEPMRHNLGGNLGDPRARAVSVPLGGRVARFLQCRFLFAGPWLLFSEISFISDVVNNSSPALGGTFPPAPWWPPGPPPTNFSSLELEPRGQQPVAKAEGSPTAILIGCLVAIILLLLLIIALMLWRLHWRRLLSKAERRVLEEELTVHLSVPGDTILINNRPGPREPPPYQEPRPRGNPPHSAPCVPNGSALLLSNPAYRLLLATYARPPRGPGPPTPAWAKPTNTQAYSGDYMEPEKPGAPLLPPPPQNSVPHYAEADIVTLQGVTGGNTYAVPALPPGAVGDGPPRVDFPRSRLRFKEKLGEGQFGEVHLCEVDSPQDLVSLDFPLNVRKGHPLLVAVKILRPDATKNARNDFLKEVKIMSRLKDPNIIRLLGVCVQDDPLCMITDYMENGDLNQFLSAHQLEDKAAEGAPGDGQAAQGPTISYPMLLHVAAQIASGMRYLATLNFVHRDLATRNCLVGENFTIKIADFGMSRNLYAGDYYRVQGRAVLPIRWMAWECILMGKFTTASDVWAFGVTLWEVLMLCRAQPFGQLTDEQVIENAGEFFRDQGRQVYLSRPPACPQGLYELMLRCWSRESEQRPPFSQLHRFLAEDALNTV

Activity [1]: 100% | Activity [2]: 85% | pIC50 [3]: 8.70 | Activity [4]: 75%
SMILES: CCc1cc(NC(=O)[C@H](O)c2cc(F)cc(F)c2)ccc1-c1cnc(N)c(C(=O)NC(C)C)c1
